According to US11752169B2, “Treatment of pain with polysulfated polysaccharides” (PARADIGM BIOPHARMACEUTICALS LTD., priority 2018, dated 2023):

Experiments:
MMP13 mRNA = assay: real-time RT-PCR for MMP13 mRNA in KOA osteocyte-like cultures; format: cell-based, human; details: KOA donor osteocyte-like cultures, PPS 1 μg/mL + rhTNFα 1 ng/mL (FIG. 20)
Text: FIG. 20. The effect of PPS treatment on basal and TNFα-induced MMP13 expression in human KOA osteocyte-like cultures. Real-time RT-PCR analysis of MMP13 mRNA relative to the expression of 18S rRNA. Data are means+SD of triplicate real-time RT-PCR reactions. A) KOA1-MMP13:18S mRNA expression; and B) KOA2-MMP13:185 mRNA expression.
Cryopreserved cells from each donor (all at passage 0 or 1) were thawed and cultured for 10d in T75 cm^2 tissue culture flasks. Once confluent, cells were removed by collagenase/dispase digestion, washed by centrifugation, counted and adjusted to 5×10^5 cells/mL. Cells were then seeded into either 12-well tissue culture trays or into 8-well chamber slides, at 1×10^5 and 2×10^4 cells/well, respectively. […]
Following three days of pre-treatment of osteocyte-like cultures with PPS and a further 48 h treatment period, total RNA was isolated for the purposes of analysing gene expression using real-time RT-PCR. While the quality of the RNA isolated from all cultures appeared to be high, as adjudged by Nanodrop micro-spectrophotometry showing the ratio of absorbance at 260 nm/280 nm generally being between 1.9 and 2.0, there was a consistent inability to generate complementary DNA (cDNA) from any samples exposed to 5 or 50 μg/mL PPS, except in one or two samples. […]

MMP13 = MMP13 immunostaining / confocal microscopy of KOA osteocyte-like cultures; format: cell-based, human; details: KOA2 cells, rhTNFα + PPS 50 μg/mL (FIG. 21)
Description: FIG. 21. The effect of PPS treatment on basal and TNFα-induced MMP13 expression in human KOA osteocyte-like cultures. Confocal microscopy imaging of immunostaining of KOA2 cells untreated stained with isotype control primary antibody or mouse anti-human anti-MMP13 antibody (top row), or treated with rhTNFα alone or rhTNFα+PPS (50 μg/mL) and stained for MMP13 (green staining). All nuclei are stained with DAPI (blue). A) Isotype IgG control; B) Untreated; anti-MMP13; C) rhTNF-α-treated; anti-MMP13; and D) rhTNFa+PPS50; anti-MMP13.
Cell seeded in 8-well chamber slides and differentiated for 28 days or freshly digested from bone were either untreated or treated with rhTNFα (1 ng/mL), PPS (50 μg/mL; ‘PPS50’) or PPS50+rhTNFα. Following differentiation, medium was removed and all wells rinsed with PBS (pH 7.4, Gibco) a total of three times. Cells were then fixed with 100 μL of Histochoice (Sigma-Aldrich) tissue fixative for 1 hour at room temperature. After fixation, wells were rinsed twice with distilled H2O and stored at 4° C. until staining. Cells were blocked with 50 μL of blocking buffer (5% v/v normal rabbit serum in 1×PBS) for 20 minutes at room temperature in a humid chamber. Cells were then rinsed with wash buffer (0.1% v/v normal rabbit serum in PBS) three times. […]

## Sodium Pentosan Polysulfate [PPS]
MMP13 mRNA
  rhTNFα-induced MMP13 mRNA expression: strongly inhibited
MMP13
  inhibition of rhTNFα-induced MMP13 at the protein level (immunostaining): confirmed
